Columns and labels:
[1] = tested on: Pyricularia oryzae (rice blast); experiment: whole plant or invertebrate; type: in vivo; conditions: foliar, read-out: RICE BLAST control rating
[2] = tested on: Botrytis cinerea (gray mold); experiment: Plant pathology screen (Test 1), gray mold on grape berries; conditions: read-out: GRAY MOLD control rating
[3] = tested on: Southern corn rootworm (Diabrotica undecimpuctata howardi Barber); experiment: Mite/insect screen, corn rootworm; type: in vivo; conditions: Diabrotica, soil, read-out: CRW results (percent mortality); for mortality at 12 ppm: CRW rate 12.00 ppm; for mortality at 24 ppm: CRW rate 24.00 ppm
Outline: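 Five 2-3 instar larvae per cup were placed on sandy soil (15 g, with presoaked corn seed) treated 6–12 h earlier with 1 mL test solution, an emulsified acetone/alcohol formulation diluted in water. Cups kept at 23° C; mortality and phytotoxicity assessed as percent after standard exposures.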

[4] = tested on: Pseudoperonospora cubensis (downy mildew); experiment: Plant pathology screen (Test 1), downy mildew on squash; conditions: foliar, read-out: DOWN MDEW control rating
Procedure: (§1) The test compounds were formulated for application by dissolving 50 mg of the compound into 1.25 ml of solvent. The solvent was prepared by mixing 50 ml of "Tween 20" (polyoxyethylene (20) sorbitan monolaurate emulsifier) with 475 ml of acetone and 475 ml of ethanol. The solvent/compound solution was diluted to 125 ml with deionized water. The resulting formulation contains 400 ppm test chemical. Lower concentrations were obtained by serial dilution with the solvent-surfactant mixture.
The formulated test compounds were applied by foliar spray. The following plant pathogens and their corresponding plants were employed.
(§2) The formulated technical compounds were sprayed on all foliar surfaces of the host plants (or cut berry) to past run-off. Single pots of each host plant were placed on raised, revolving pedestals in a fume hood. Test solutions were sprayed on all foliar surfaces. All treatments were allowed to dry and the plants were inoculated with the appropriate pathogens within 2-4 hours.
(§3) The effectiveness of test compounds in controlling disease was rated using the following scale.

[5] = tested on: Twospotted spider mites (Tetranychus urticae Koch); experiment: Mite/insect screen, twospotted spider mites; type: in vivo; conditions: Tetranychus urticae, sprayed leaves, read-out: SM results (percent mortality); for mortality at 200 ppm: rate 200 ppm; for mortality at 400 ppm: rate 400 ppm
Outline: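 Percent mortality, along with phytotoxicity, was read after standard exposure periods. Beforehand, mites established on both surfaces of squash cotyledons received a runoff spray (10 psi) of water-diluted compound formulated in acetone/alcohol with sulfonate/nonionic emulsifiers.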

[6] = tested on: melon aphids (Aphis gossvpii Glover); experiment: Mite/insect screen, melon aphids; type: in vivo; conditions: Aphis, sprayed leaves, read-out: MA results (percent mortality); for mortality at 200 ppm: rate 200 ppm; for mortality at 400 ppm: rate 400 ppm
Outline: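 Percent mortality of melon aphids was assessed after standard exposure periods. Infested squash cotyledons had been sprayed on both leaf surfaces until runoff at 10 psi with water-diluted test solutions. Compounds were formulated in acetone/alcohol (50:50) containing emulsifiers.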

[7] = tested on: southern armyworm (Spodopetra eridania Cramer); experiment: Mite/insect screen, Southern armyworm; type: in vivo; conditions: Spodoptera eridania, sprayed leaves, read-out: SAW results (percent mortality); for mortality at 200 ppm: rate 200 ppm; for mortality at 400 ppm: rate 400 ppm
Outline: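 Southern armyworm larvae placed in Petri dishes with two excised squash leaves that had been sprayed to runoff (10 psi) with emulsified compound and air-dried for 1 h. Mortality in percent recorded after a standard exposure period; formulation acetone/alcohol plus Toximul R and S, water-diluted.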

[8] = tested on: Puccinia recondita tritici (leaf rust); experiment: Plant pathology screen (Test 1), leaf rust on wheat; conditions: in Triticum aestivum, foliar, read-out: LEAF RUST control rating
Procedure: This screen was used to evaluate the efficacy of the present compounds against a variety of different organisms that cause plant diseases.
as §1
The formulated test compounds were applied by foliar spray.
as §2, §3

[9] = tested on: Erysiphe graminis tritici (powdery mildew); experiment: Plant pathology screen (Test 1), powdery mildew on wheat; conditions: Blumeria graminis, in Triticum aestivum, foliar, read-out: POWD MDEW control rating

Structure (SMILES) | pest or weed control at 400 µg/mL [1] | pest or weed control at 400 µg/mL [2] | mortality at 12 ppm [3] | mortality at 24 ppm [3] | pest or weed control at 400 µg/mL [4] | mortality at 200 ppm [5] | mortality at 400 ppm [5] | mortality at 200 ppm [6] | mortality at 400 ppm [6] | mortality at 200 ppm [7] | mortality at 400 ppm [7] | pest or weed control at 400 µg/mL [8] | pest or weed control at 400 µg/mL [9]
COc1ccccc1Oc1ncnc2oc(C)c(C)c12 [Example 28, 5,6-dimethyl-4-(2-methoxyphenoxy)furo[2,3-d]pyrimidine] | 0 to 19% | 0 to 19% | 0% | 0% | 0 to 19% | 90% | 0% | 30% | 0% | 0% | 0% | 0 to 19% | 0 to 19%
Cc1oc2ncnc(OCCc3ccc4c(c3)OCCO4)c2c1C [Example 75, 5,6-dimethyl-4-[2-[benzo[b]-1,4-dioxan-6-yl]ethoxy]furo[2,3-d]pyrimidine] | 0 to 19% | 0 to 19% |  | 0% | 20 to 89% |  | 0% |  | 0% |  | 40% | 0 to 19% | 0 to 19%
COc1ccc(CCNc2ncnc3occ(C)c23)cc1 [Example 2, 5-methyl-N-[2-(4-methoxyphenyl)ethyl]furo[2,3-d]pyrimidin-4-amine] | 90 to 100% | 0 to 19% | 0% | 0% | 90 to 100% | 0% | 0% | 0% | 80% | 0% | 0% | 90 to 100% | 20 to 89%
Cc1oc2ncnc(Oc3ccc(F)cc3)c2c1C [Example 49, 5,6-dimethyl-4-(4-fluorophenoxy)furo[2,3-d]pyrimidine] | 0 to 19% | 0 to 19% | 0% | 0% | 0 to 19% | 0% | 0% | 0% | 0% | 80% | 0% | 90 to 100% | 90 to 100%
Cc1oc2ncnc(NCCc3ccc(OC(F)(F)F)cc3)c2c1C [Example 68, 5,6-dimethyl-N-[2-[4-(trifluoromethoxy)phenyl]ethyl]furo[2,3-d]pyrimidin-4-amine] | 90 to 100% | 0 to 19% |  | 0% | 90 to 100% |  | 30% |  | 90% |  | 100% | 20 to 89% | 20 to 89%
Cc1oc2ncnc(NCCC3CCC4CCCCC4C3)c2c1C (centres unmarked) [Example 18, N-[2-(decahydro-2-naphthyl)ethyl]-5,6-dimethylfuro[2,3-d]pyrimidin-4-amine] | 0 to 19% | 20 to 89% | 0% | 0% | 0 to 19% | 0% | 0% | 0% | 0% | 0% | 0% | 0 to 19% | 0 to 19%
Cc1oc2ncnc(OCCc3ccc(C(F)(F)F)cc3)c2c1C [Example 54] | 90 to 100% | 0 to 19% | 0% | 0% | 0 to 19% | 100% | 60% | 100% | 40% | 0% | 40% | 90 to 100% | 90 to 100%

— US5486516A, “Furopyrimidine derivatives” (DowElanco, priority 1993, dated 1996)
